Measurements: PMC10136361 (Biomolecules, 2023)

Legend:
MmGSTP1-1 [1] = molecular target: T1, MmGSTP1-1 (Mus musculus, UniProt P19157); experiment: steady-state kinetics (Km); assay type: biochemical
T1 construct: gene Gstp1; recombinant MmGSTP1-1 (GenBank BC061109.1), expressed in E. coli

MmGSTP1-1 [2] = molecular target: T1, MmGSTP1-1; experiment: X-ray co-crystal structure, […] Å; assay type: binding
MmGSTP1-1 [3] = molecular target: T1, MmGSTP1-1; experiment: CDNB-GSH enzyme assay, single concentration […]; assay type: biochemical; settings: read-out: % inhibition at 25 μM
MmGSTP1-1 [4] = molecular target: T1, MmGSTP1-1; experiment: CDNB-GSH enzyme assay at […] nm, inhibition kinetics (KiE, GSH varied); IC50 […]; assay type: biochemical

T1 sequence (P19157 2-210): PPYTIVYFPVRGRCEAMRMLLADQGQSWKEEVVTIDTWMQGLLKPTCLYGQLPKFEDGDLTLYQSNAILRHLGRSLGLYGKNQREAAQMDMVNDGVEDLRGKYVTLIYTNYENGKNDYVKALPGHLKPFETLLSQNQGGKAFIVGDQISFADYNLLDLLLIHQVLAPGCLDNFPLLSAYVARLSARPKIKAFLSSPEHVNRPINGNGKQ

SMILES	inhibition at 25 µM (MmGSTP1-1 [3]) [%]	also measured
O=[N+]([O-])c1ccc(Cl)c([N+](=O)[O-])c1 [1-chloro-2,4-dinitrobenzene]	–	Km (MmGSTP1-1 [1]): 800 ± 40 µM
N[C@@H](CCC(=O)N[C@@H](CSCc1ccc([N+](=O)[O-])cc1)C(=O)NCC(=O)O)C(=O)O [S-(p-nitrobenzyl)glutathione]	–	X-ray co-crystal structure, 1.28 Å (MmGSTP1-1 [2]): A molecule of Nb-GSH was found bound in the active site of each molecule of the dimer
CC1(C)[C@H](C(=O)O[C@H](C#N)c2cccc(Oc3ccccc3)c2)[C@@H]1C=C(Br)Br [deltamethrin]	82	–
CSC1=N[C@@](C)(c2ccccc2)C(=O)N1Nc1ccccc1 [fenamidone]	53	–
CC(C)NC(=O)N1CC(=O)N(c2cc(Cl)cc(Cl)c2)C1=O [iprodione, 3-(3,5-dichlorophenyl)-2,4-dioxo-N-propan-2-ylimidazolidine-1-carboxamide]	–	Ki (MmGSTP1-1 [4]): 5.2 ± 0.1 µM
Cc1cc(C)c(C2=C(OC(=O)CC(C)(C)C)C3(CCCC3)OC2=O)c(C)c1 [spiromesifen]	70	–
O=S1OC[C@@H]2[C@H](CO1)[C@@]1(Cl)C(Cl)=C(Cl)[C@]2(Cl)C1(Cl)Cl (stereo partly drawn) [α-endosulfan]	58	–
